Data from patent US7785846B2, “Method for the production of methionine” (Evonik Degussa GmbH, priority 2003, dated 2010).
Converted amounts (≈) assume the structure as drawn.

How the values were obtained:
physchem = conditions: water
[1] = under these conditions (20° C. and 70° C.), compared with water

## CSCC[C@H](N)C(=O)O [methionine]
physchem; 20 °C
  solubility: ~30 mg/mL (≈ 201 mM)
physchem; 70 °C
  solubility: > 90 mg/mL
[1]
  solubility in the fermentation broth: comparable order of magnitude
